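These data come from cells grown in 96-well plates and exposed to compound for 48 hours at five concentrations. TGI is the concentration that stops growth completely.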
Key:
Assay in all cases: NCI anticancer screen, dose series, 48 h
HS 578T breast = tested on: HS 578T breast
MDA-MB-231 breast = tested on: MDA-MB-231 breast
A498 renal = tested on: A498 renal
NCI-H522 lung = tested on: NCI-H522 lung
PC-3 prostate = tested on: PC-3 prostate
HCT-116 colon = tested on: HCT-116 colon
LOX IMVI melanoma = tested on: LOX IMVI melanoma
MDA-MB-435 = tested on: MDA-MB-435
SF-295 CNS = tested on: SF-295 CNS
RPMI-8226 leukemia = tested on: RPMI-8226 leukemia
786-0 renal = tested on: 786-0 renal
MALME-3M melanoma = tested on: MALME-3M melanoma
SK-OV-3 ovarian = tested on: SK-OV-3 ovarian
U251 CNS = tested on: U251 CNS
UACC-257 melanoma = tested on: UACC-257 melanoma
SNB-19 CNS = tested on: SNB-19 CNS
SK-MEL-2 melanoma = tested on: SK-MEL-2 melanoma
CCRF-CEM leukemia = tested on: CCRF-CEM leukemia
COLO 205 colon = tested on: COLO 205 colon
DU-145 prostate = tested on: DU-145 prostate
HT29 colon = tested on: HT29 colon
BT-549 breast = tested on: BT-549 breast
M14 melanoma = tested on: M14 melanoma
UACC-62 melanoma = tested on: UACC-62 melanoma
NCI-H460 lung = tested on: NCI-H460 lung
T-47D breast = tested on: T-47D breast
OVCAR-5 ovarian = tested on: OVCAR-5 ovarian
HCT-15 colon = tested on: HCT-15 colon
A549 NSCLC = tested on: A549 NSCLC
IGROV1 ovarian = tested on: IGROV1 ovarian
SNB-75 CNS = tested on: SNB-75 CNS
OVCAR-3 ovarian = tested on: OVCAR-3 ovarian
SF-268 CNS = tested on: SF-268 CNS
RXF 393 renal = tested on: RXF 393 renal
SK-MEL-5 melanoma = tested on: SK-MEL-5 melanoma
OVCAR-4 ovarian = tested on: OVCAR-4 ovarian
SK-MEL-28 melanoma = tested on: SK-MEL-28 melanoma
HCC-2998 colon = tested on: HCC-2998 colon
SW-620 colon = tested on: SW-620 colon
CAKI-1 renal = tested on: CAKI-1 renal
TK-10 renal = tested on: TK-10 renal
HOP-62 NSCLC = tested on: HOP-62 NSCLC
NCI/ADR-RES ovarian = tested on: NCI/ADR-RES ovarian
OVCAR-8 ovarian = tested on: OVCAR-8 ovarian
ACHN renal = tested on: ACHN renal
K-562 leukemia = tested on: K-562 leukemia
EKVX NSCLC = tested on: EKVX NSCLC
NCI-H226 lung = tested on: NCI-H226 lung
MOLT-4 leukemia = tested on: MOLT-4 leukemia
KM12 colon = tested on: KM12 colon
HOP-92 NSCLC = tested on: HOP-92 NSCLC
NCI-H23 lung = tested on: NCI-H23 lung
UO-31 renal = tested on: UO-31 renal
SR leukemia = tested on: SR leukemia
HL-60(TB) leukemia = tested on: HL-60(TB) leukemia

CCOP(=O)(OCC)C(Nc1ccc(C(=O)O)cc1)c1ccc(C(Nc2ccc(C(=O)O)cc2)P(=O)(OCC)OCC)cc1 (configuration not stated)
TGI (HS 578T breast): > 100 µM | TGI (MDA-MB-231 breast): > 100 µM | TGI (A498 renal): > 100 µM | TGI (NCI-H522 lung): > 100 µM | TGI (PC-3 prostate): > 100 µM | TGI (HCT-116 colon): > 100 µM | TGI (LOX IMVI melanoma): > 100 µM | TGI (MDA-MB-435): > 100 µM | TGI (SF-295 CNS): > 100 µM | TGI (RPMI-8226 leukemia): > 100 µM | TGI (786-0 renal): > 100 µM | TGI (MALME-3M melanoma): > 100 µM | TGI (SK-OV-3 ovarian): > 100 µM | TGI (U251 CNS): > 100 µM | TGI (UACC-257 melanoma): > 100 µM | TGI (SNB-19 CNS): > 100 µM | TGI (SK-MEL-2 melanoma): > 100 µM | TGI (CCRF-CEM leukemia): > 100 µM | TGI (COLO 205 colon): > 100 µM | TGI (DU-145 prostate): > 100 µM | TGI (HT29 colon): > 100 µM | TGI (BT-549 breast): > 100 µM | TGI (M14 melanoma): > 100 µM | TGI (UACC-62 melanoma): > 100 µM | TGI (NCI-H460 lung): > 100 µM | TGI (T-47D breast): > 100 µM | TGI (OVCAR-5 ovarian): > 100 µM | TGI (HCT-15 colon): > 100 µM | TGI (A549 NSCLC): > 100 µM | TGI (IGROV1 ovarian): > 100 µM | TGI (SNB-75 CNS): > 100 µM | TGI (OVCAR-3 ovarian): > 100 µM | TGI (SF-268 CNS): > 100 µM | TGI (RXF 393 renal): > 100 µM | TGI (SK-MEL-5 melanoma): > 100 µM | TGI (OVCAR-4 ovarian): > 100 µM | TGI (SK-MEL-28 melanoma): > 100 µM | TGI (HCC-2998 colon): > 100 µM | TGI (SW-620 colon): > 100 µM | TGI (CAKI-1 renal): > 100 µM | TGI (TK-10 renal): > 100 µM | TGI (HOP-62 NSCLC): > 100 µM | TGI (NCI/ADR-RES ovarian): > 100 µM | TGI (OVCAR-8 ovarian): > 100 µM | TGI (ACHN renal): > 100 µM | TGI (K-562 leukemia): > 100 µM | TGI (EKVX NSCLC): > 100 µM | TGI (NCI-H226 lung): > 100 µM | TGI (MOLT-4 leukemia): > 100 µM | TGI (KM12 colon): > 100 µM | TGI (HOP-92 NSCLC): > 100 µM | TGI (NCI-H23 lung): > 100 µM | TGI (UO-31 renal): > 100 µM

ClCCN(CCCl)c1ccc(CNCCCNCc2ccc(N(CCCl)CCCl)cc2)cc1
TGI (HS 578T breast): 7.81 µM | TGI (MDA-MB-231 breast): 5.37 µM | TGI (A498 renal): 33.8 µM | TGI (PC-3 prostate): 26.5 µM | TGI (HCT-116 colon): > 100 µM | TGI (RPMI-8226 leukemia): > 100 µM | TGI (UACC-257 melanoma): 4.71 µM | TGI (CCRF-CEM leukemia): > 100 µM | TGI (COLO 205 colon): 3.29 µM | TGI (DU-145 prostate): > 100 µM | TGI (BT-549 breast): 9.85 µM | TGI (M14 melanoma): > 100 µM | TGI (SR leukemia): 1290 nM | TGI (OVCAR-5 ovarian): > 100 µM | TGI (A549 NSCLC): > 100 µM | TGI (SK-MEL-28 melanoma): 3.18 µM | TGI (HCC-2998 colon): 5.2 µM | TGI (HL-60(TB) leukemia): 2670 nM | TGI (SW-620 colon): > 100 µM | TGI (CAKI-1 renal): 27.2 µM | TGI (TK-10 renal): 5.25 µM | TGI (NCI/ADR-RES ovarian): > 100 µM | TGI (NCI-H226 lung): 30.3 µM | TGI (HOP-92 NSCLC): 26.6 µM
